# Assay results published in ChEMBL document CHEMBL5465560, “Selectivity Literature for EUbOPEN Chemogenomic Library” (2024).
# Key:
# [1] = biological target: Fibroblast growth factor receptor 4 (Homo sapiens, UniProt P22455); experiment: Selectivity interaction (KinomeScan (DiscoverX)) EUB0001079a FGFR4; conditions: at 1 µM
# [2] = biological target: T1, Membrane-associated tyrosine- and threonine-specific cdc2-inhibitory kinase (Homo sapiens) (UniProt Q99640); experiment: Selectivity interaction (KinomeScan (DiscoverX)) EUB0000618a PKMYT1; conditions: at 10 µM
# T1 sequence (whole entry): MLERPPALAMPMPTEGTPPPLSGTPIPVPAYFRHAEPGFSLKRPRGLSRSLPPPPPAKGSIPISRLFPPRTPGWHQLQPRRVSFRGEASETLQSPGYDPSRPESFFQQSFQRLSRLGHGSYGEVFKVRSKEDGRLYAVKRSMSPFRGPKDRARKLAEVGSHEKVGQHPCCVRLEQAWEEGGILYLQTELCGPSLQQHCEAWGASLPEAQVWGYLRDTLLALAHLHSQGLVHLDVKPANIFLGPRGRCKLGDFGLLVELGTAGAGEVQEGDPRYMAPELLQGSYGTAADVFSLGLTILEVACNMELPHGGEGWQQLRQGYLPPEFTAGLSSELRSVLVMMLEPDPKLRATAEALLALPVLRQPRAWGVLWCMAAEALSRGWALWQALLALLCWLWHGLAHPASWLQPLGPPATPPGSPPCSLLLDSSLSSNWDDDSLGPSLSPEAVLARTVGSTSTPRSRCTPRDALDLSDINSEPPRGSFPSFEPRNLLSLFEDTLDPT
# [3] = biological target: Cyclin-dependent kinase-like 1 (Homo sapiens) (UniProt Q00532); experiment: Selectivity interaction (KinomeScan (DiscoverX)) EUB0001619a CDKL1; conditions: at 1 µM
# [4] = biological target: STE20-like serine/threonine-protein kinase (Homo sapiens, UniProt Q9H2G2); conditions: at 10 µM
# Aurora kinase B = Aurora kinase B (Homo sapiens, UniProt Q96GD4); experiment: Selectivity interaction (Kinase panel (Invitrogen)) EUB0000639a AURKB; conditions: at 200 nM
# [5] = biological target: T2, Tyrosine-protein kinase Mer (Homo sapiens) (UniProt Q12866); experiment: Selectivity interaction (Kinase screening (Nanosyn)) EUB0000604a MERTK
# T2 sequence (whole entry): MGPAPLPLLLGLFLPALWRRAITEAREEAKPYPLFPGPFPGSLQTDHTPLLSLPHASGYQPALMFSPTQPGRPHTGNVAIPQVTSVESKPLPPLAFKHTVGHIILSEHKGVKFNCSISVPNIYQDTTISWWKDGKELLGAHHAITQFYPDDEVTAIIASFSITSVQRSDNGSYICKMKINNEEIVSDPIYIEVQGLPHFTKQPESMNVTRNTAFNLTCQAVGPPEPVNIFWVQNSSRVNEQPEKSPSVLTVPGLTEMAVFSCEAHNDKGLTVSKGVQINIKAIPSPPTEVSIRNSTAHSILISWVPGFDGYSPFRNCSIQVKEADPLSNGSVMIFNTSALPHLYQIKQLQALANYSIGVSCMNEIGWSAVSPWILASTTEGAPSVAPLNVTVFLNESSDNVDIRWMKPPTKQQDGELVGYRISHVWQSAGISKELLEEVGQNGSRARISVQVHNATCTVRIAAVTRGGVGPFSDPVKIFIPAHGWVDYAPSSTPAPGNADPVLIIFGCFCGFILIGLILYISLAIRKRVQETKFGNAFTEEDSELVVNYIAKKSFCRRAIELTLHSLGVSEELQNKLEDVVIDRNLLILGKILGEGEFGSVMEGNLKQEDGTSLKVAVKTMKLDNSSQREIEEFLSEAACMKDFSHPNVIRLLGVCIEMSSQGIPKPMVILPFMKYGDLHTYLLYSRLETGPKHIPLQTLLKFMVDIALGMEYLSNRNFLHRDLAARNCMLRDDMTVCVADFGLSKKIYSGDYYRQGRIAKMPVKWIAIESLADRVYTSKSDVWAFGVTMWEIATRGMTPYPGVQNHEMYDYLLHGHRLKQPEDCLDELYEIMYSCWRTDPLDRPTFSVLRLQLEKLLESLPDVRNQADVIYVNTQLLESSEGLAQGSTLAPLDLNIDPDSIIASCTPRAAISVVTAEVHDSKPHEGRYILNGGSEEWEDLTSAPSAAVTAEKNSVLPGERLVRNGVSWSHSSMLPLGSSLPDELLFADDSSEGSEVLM
# [6] = biological target: T3, Serine/threonine-protein kinase Nek1 (Homo sapiens) (UniProt Q96PY6); experiment: Selectivity interaction (Kinase screening (Nanosyn)) EUB0000604a NEK1
# T3 sequence (whole entry): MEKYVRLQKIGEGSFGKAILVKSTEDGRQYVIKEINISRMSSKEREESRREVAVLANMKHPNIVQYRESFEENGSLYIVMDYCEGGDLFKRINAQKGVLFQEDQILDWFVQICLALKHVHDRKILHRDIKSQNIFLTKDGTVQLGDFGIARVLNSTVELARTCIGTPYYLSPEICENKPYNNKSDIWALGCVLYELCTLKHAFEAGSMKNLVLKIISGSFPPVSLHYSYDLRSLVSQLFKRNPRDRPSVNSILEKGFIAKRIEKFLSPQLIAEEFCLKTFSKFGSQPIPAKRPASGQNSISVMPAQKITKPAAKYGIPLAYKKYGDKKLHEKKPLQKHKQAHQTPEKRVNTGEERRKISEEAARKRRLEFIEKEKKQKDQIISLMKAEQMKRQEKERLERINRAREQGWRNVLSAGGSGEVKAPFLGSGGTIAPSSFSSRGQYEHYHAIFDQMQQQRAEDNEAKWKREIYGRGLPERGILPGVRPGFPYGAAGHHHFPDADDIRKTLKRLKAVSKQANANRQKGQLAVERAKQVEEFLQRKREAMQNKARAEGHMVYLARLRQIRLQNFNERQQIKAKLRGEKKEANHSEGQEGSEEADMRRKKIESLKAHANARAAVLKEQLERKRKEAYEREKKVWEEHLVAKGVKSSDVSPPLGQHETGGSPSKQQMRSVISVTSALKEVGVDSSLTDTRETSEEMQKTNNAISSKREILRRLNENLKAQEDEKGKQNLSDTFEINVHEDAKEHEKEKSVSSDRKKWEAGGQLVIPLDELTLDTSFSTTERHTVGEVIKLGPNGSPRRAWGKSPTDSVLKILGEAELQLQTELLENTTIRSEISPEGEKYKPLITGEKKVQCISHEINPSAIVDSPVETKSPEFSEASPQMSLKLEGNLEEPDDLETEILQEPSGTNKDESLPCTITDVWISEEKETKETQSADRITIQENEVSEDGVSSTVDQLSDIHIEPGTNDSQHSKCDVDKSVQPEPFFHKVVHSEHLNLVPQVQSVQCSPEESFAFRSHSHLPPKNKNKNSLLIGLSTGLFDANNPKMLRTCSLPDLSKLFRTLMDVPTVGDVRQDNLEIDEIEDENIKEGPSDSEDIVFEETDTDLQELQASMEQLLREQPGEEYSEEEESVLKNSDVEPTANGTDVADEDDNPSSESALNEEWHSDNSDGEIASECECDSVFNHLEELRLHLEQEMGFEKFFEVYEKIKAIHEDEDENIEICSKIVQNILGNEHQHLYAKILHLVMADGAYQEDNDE
# Aurora kinase B, sequence (Q96GD4 whole entry): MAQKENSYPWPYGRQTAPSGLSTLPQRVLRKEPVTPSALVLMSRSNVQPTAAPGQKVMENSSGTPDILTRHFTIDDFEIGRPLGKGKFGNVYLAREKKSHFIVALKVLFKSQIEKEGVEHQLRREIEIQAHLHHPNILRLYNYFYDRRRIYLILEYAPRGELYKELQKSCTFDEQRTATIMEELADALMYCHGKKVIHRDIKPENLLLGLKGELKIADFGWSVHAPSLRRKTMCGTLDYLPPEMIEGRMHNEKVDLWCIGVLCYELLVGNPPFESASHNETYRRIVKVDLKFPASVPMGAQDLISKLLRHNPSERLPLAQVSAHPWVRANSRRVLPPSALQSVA
# STE20-like serine/threonine-protein kinase, sequence (Q9H2G2 whole entry, looked up): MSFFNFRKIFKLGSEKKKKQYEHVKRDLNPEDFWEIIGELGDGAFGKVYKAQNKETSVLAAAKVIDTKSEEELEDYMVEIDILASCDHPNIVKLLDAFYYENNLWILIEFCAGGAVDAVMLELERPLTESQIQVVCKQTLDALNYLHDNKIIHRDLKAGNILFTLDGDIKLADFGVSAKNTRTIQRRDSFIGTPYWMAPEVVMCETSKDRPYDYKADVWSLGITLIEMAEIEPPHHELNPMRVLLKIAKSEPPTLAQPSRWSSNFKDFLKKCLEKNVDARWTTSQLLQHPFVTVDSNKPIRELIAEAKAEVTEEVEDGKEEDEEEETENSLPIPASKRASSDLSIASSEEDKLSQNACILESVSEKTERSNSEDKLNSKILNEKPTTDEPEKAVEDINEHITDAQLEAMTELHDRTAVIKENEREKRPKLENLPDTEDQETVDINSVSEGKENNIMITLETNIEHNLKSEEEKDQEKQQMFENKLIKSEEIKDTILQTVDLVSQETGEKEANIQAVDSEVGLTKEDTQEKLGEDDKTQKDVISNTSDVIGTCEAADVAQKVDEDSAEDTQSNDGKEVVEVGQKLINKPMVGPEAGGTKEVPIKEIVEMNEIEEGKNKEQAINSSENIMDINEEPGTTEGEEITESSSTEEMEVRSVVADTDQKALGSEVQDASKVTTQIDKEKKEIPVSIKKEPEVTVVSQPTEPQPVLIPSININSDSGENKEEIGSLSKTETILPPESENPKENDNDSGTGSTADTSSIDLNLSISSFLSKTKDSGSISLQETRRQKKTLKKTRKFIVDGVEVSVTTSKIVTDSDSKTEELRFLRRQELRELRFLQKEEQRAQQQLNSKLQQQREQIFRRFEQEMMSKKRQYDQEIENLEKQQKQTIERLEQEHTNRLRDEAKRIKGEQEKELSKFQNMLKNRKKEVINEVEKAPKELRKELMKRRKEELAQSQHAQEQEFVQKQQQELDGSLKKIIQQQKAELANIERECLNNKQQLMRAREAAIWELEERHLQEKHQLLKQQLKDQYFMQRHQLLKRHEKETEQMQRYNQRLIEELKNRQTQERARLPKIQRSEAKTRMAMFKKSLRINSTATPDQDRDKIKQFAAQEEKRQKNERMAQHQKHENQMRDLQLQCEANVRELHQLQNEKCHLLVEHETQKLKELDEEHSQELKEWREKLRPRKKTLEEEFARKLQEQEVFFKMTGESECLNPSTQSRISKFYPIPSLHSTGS
# Fibroblast growth factor receptor 4, sequence (P22455 22-802 limits assumed): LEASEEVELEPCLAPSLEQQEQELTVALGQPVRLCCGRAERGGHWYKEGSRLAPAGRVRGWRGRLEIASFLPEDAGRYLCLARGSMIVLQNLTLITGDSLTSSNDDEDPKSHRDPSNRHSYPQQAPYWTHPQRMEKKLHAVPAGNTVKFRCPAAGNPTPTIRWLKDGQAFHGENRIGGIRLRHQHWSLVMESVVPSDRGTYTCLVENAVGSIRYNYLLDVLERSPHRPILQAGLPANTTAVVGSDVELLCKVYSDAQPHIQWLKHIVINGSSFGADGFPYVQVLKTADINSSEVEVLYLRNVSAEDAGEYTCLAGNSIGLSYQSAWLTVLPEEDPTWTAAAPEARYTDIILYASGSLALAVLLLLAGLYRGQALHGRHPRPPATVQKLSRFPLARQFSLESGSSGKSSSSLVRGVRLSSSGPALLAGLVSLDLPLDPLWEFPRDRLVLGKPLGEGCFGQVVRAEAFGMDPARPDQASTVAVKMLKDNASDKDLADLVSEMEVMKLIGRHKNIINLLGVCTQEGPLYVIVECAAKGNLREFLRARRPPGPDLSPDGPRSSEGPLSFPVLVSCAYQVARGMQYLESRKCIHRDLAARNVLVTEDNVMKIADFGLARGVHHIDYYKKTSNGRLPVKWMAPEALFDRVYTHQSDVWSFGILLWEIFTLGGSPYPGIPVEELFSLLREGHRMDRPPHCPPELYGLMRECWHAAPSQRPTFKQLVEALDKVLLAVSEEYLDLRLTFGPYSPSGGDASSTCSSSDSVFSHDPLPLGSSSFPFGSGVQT
# Cyclin-dependent kinase-like 1 (Homo sapiens), sequence (Q00532 whole entry): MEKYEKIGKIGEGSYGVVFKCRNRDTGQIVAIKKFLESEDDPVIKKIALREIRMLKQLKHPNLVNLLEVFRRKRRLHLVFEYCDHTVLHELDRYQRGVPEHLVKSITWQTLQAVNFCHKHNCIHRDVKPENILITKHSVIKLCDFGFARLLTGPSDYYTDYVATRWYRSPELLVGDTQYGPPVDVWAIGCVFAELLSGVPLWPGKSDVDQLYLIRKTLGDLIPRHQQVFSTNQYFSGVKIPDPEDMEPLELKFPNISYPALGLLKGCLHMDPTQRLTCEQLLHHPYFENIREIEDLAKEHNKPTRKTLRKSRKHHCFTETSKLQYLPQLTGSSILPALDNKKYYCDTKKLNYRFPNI
smiles,measurement,setting,value
Nc1cnc(N2CCc3cc(S(=O)(=O)Nc4c(F)cc(Cl)cc4F)cc(N4CCCC4=O)c32)nc1 [TP-020n],% of control,[1],100%
O[C@H]1CC[C@H](Nc2ncc3nc(Nc4c(F)cc(F)cc4F)n([C@H]4CCOC4)c3n2)CC1,% of control,[2],92%
N#Cc1cccc(-c2c[nH]c3ncnc(N4CCOCC4)c23)c1,% of control,[3],100%
Cc1cc([C@@H](C)Nc2ccccc2C(=O)O)c2nc(N3CCOCC3)cc(=O)n2c1 [AZD-6482],% of control,[4],100%
CC[C@@H]1[C@H](F)C(=O)N[C@@H]1COc1nccc2cc(C(N)=O)c(OC)cc12 [ZIMLOVISERTIB],% of inhibition,Aurora kinase B,11.3%
Cc1cnc(Nc2ccc(F)cc2Cl)nc1-c1c[nH]c(C(=O)N[C@H](CO)c2cccc(Cl)c2)c1,% of inhibition,[5],9%
same,% of inhibition,[6],6%
